According to patent US20220324835A1 (Nurix Therapeutics, Inc., priority 2018, published 2022):

Tests used:
T-cell [1] = assay: IL-2 secretion from T-cells stimulated with anti-CD3 antibody alone (Biological Example 2); type: cell-based, human; conditions: T-cell, fold change over baseline, primary human total T-cells, read-out: IL-2 secretion Anti-CD3 stimulation; for fold induction at 1 µM: 1 μM Cbl-b inhibitor; for fold induction at 8 µM: 8 μM Cbl-b inhibitor
Cbl-b = Cbl-b (Homo sapiens, UniProt Q13191); assay: Cbl-b inhibition assay (Cbl-b activity assay, FRET, Biological Example 1; 100 mM NaCl, 60 nM Src kinase); type: biochemical; conditions: upper bound stated in text lists; read-out: IC50 values in the Cbl-b inhibition assay of Biological Example 1
Cbl-b, sequence (Q13191 36-427): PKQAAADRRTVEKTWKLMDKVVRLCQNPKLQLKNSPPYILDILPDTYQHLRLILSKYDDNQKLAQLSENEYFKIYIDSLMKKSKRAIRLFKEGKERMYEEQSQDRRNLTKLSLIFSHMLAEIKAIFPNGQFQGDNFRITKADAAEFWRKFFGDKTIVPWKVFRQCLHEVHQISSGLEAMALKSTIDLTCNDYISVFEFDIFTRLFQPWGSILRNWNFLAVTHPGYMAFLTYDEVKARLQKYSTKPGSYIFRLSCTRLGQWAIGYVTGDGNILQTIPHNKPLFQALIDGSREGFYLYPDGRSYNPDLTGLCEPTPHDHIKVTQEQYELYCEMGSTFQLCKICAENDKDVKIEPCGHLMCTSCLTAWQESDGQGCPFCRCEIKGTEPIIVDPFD
Procedure, shortened: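 Here, the E2 UbcH5B, irreversibly linked to Bodipy-fluorescein ubiquitin, binds Cbl-b once Src kinase phosphorylates it; Cbl-b carries an N-terminal biotinylated Avi-tag captured by streptavidin-terbium. An absent FRET signal indicates inhibition.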

T-cell [2] = assay: CD25 cell surface staining on T-cells co-stimulated with anti-CD3 and anti-CD28 antibody (Biological Example 2); type: cell-based, human; conditions: Homo sapiens, T-cell, fold change over baseline, primary human total T-cells, read-out: CD25 staining Anti-CD3/Anti-CD28 stimulation; for fold induction at 0.3 µM: 0.3 μM Cbl-b inhibitor; for fold induction at 1 µM: 1 μM Cbl-b inhibitor; for fold induction at 4 µM: 4 μM Cbl-b inhibitor
Procedure, shortened: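 Values are fold-change over baseline: readings (IL-2 release, CD25 staining) from inhibitor-treated T-cells divided against untreated cells […]. No detailed procedure stated.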

SMILES | fold induction at 1 µM (T-cell [1]) | fold induction at 8 µM (T-cell [1]) | IC50 (Cbl-b) [nM] | fold induction at 0.3 µM (T-cell [2]) | fold induction at 1 µM (T-cell [2]) | fold induction at 4 µM (T-cell [2])
C[C@H](Cc1nncn1C)c1cccc(NC(=O)c2cncc(C(F)(F)F)n2)c1 [Compound 189, (R)-N-(3-(1-(4-methyl-4H-1,2,4-triazol-3-yl)propan-2-yl)phenyl)-6-(trifluoromethyl)pyrazine-2-carboxamide] | 0.051 to 0.1 | 0.051 to 0.1 | ≤ 500 | > 1.76 | > 1.76 | > 1.76
C[C@H](Cc1nncn1C)c1ccnc(NC(=O)c2cccc(C(F)(F)F)n2)c1 [Compound 302, (R)-N-(4-(1-(4-methyl-4H-1,2,4-triazol-3-yl)propan-2-yl)pyridin-2-yl)-6-(trifluoromethyl)picolinamide] | < 0.05 | 0.051 to 0.1 | ≤ 1000 | 1.01 to 1.3 | 1.01 to 1.3 | 1.01 to 1.3
CC(Sc1nncn1C)c1cc(F)cc(N2Cc3c(cccc3C(F)(F)F)C2=O)c1 [Compound 168, 2-[3-fluoro-5-[(1R)-1-[(4-methyl-1,2,4-triazol-3-yl)sulfanyl]ethyl]phenyl]-4-(trifluoromethyl)isoindolin-1-one] | < 0.05 | 0.051 to 0.1 | ≤ 500 | < 1 | < 1 | 1.01 to 1.3
C[C@H](Sc1nncn1C)c1ccnc(NC(=O)c2cc3c(C(F)(F)F)cccc3[nH]2)c1 [Compound 120, N-[4-[(1S)-1-[(4-methyl-1,2,4-triazol-3-yl)sulfanyl]ethyl]-2-pyridyl]-4-(trifluoromethyl)-1H-indole-2-carboxamide] | < 0.05 | < 0.05 | ≤ 500 | < 1 | < 1 | < 1
Cc1conc1C[C@@H](C)c1cccc(NC(=O)c2ccnc(C(F)(F)F)n2)c1 [Compound 213a, (R)-N-(3-(1-(4-methylisoxazol-3-yl)propan-2-yl)phenyl)-2-(trifluoromethyl)pyrimidine-4-carboxamide] | 0.051 to 0.1 | 0.101 to 0.15 | ≤ 500 | 1.01 to 1.3 | 1.01 to 1.3 | 1.01 to 1.3
C[C@H](Sc1nncn1C)c1cccc(NC(=O)c2cccc(C(C)(F)F)n2)c1 [Compound 81, (S)-6-(1,1-difluoroethyl)-N-(3-(1-((4-methyl-4H-1,2,4-triazol-3-yl)thio)ethyl)phenyl)picolinamide] | < 0.05 | 0.151 to 0.2 | ≤ 500 | 1.01 to 1.3 | 1.51 to 1.75 | > 1.76
C[C@H](Cc1nncn1C)c1cccc(NC(=O)c2nc(C(F)(F)F)c[nH]2)c1 [Compound 326, (R)-N-(3-(1-(4-methyl-4H-1,2,4-triazol-3-yl)propan-2-yl)phenyl)-4-(trifluoromethyl)-1H-imidazole-2-carboxamide] | 0.051 to 0.1 | > 0.201 | ≤ 300 | 1.01 to 1.3 | 1.01 to 1.3 | 1.01 to 1.3
Cc1ccc(C(=O)Nc2cccc([C@H](C)Sc3nncn3C)c2)nc1C(F)(F)F [Compound 61, (S)-5-methyl-N-(3-(1-((4-methyl-4H-1,2,4-triazol-3-yl)thio)ethyl)phenyl)-6-(trifluoromethyl)picolinamide] | < 0.05 | < 0.05 | ≤ 500 | < 1 | 1.01 to 1.3 | 1.01 to 1.3
C[C@H](Cc1nncn1C)c1cccc(N2Cc3c(ccnc3C3CCC3)C2=O)c1 [Compound 258, (R)-4-cyclobutyl-2-(3-(1-(4-methyl-4H-1,2,4-triazol-3-yl)propan-2-yl)phenyl)-2,3-dihydropyrrolo[3,4-c]pyridin-1-one] | 0.051 to 0.1 | 0.101 to 0.15 | ≤ 500 | < 1 | 1.01 to 1.3 | 1.01 to 1.3
C[C@H](Cc1nncn1C)c1cccc(NC(=O)c2cc(C(=O)N3C[C@@H](O)[C@H](F)C3)ccn2)c1 [Compound 240, 4-((3R,4R)-3-fluoro-4-hydroxypyrrolidine-1-carbonyl)-N-(3-((K)-1-(4-methyl-4H-1,2,4-triazol-3-yl)propan-2-yl)phenyl)picolinamide] | 0.151 to 0.2 | > 0.201 | ≤ 500 | < 1 | 1.01 to 1.3 | 1.31 to 1.5
C[C@H](Cc1nncn1C)c1cccc(NC(=O)c2cc(C(=O)N3CC(O)C(F)(F)C3)ccn2)c1 (stereo partly drawn) [Compound 243, 4-(3,3-difluoro-4-hydroxypyrrolidine-1-carbonyl)-N-[3-[(2R)-1-(4-methyl-4H-1,2,4-triazol-3-yl)propan-2-yl]phenyl]pyridine-2-carboxamide] | > 0.201 | > 0.201 | ≤ 500 | < 1 | < 1 | 1.31 to 1.5
C[C@H](Cc1nncn1C)c1cccc(NC(=O)c2cc(C(=O)N3C[C@@H](O)C[C@H]3C)ccn2)c1 [Compound 224, 4-((2R,4S)-4-hydroxy-2-methylpyrrolidine-1-carbonyl)-N-(3-((R)-1-(4-methyl-4H-1,2,4-triazol-3-yl)propan-2-yl)phenyl)picolinamide] | 0.101 to 0.15 | 0.101 to 0.15 | ≤ 500 | 1.01 to 1.3 | 1.01 to 1.3 | 1.51 to 1.75
C[C@H](Cc1nncn1C)c1cccc(NC(=O)c2cccc(C(F)(F)CO)n2)c1 [Compound 188, (R)-6-(1,1-difluoro-2-hydroxyethyl)-N-(3-(1-(4-methyl-4H-1,2,4-triazol-3-yl)propan-2-yl)phenyl)picolinamide] | < 0.05 | 0.051 to 0.1 | ≤ 500 | 1.01 to 1.3 | 1.31 to 1.5 | > 1.76
Cc1cc(C)nc(C(=O)Nc2cccc([C@H](C)Sc3nncn3C)c2)c1 [Compound 56, (S)-4,6-dimethyl-N-(3-(1-((4-methyl-4H-1,2,4-triazol-3-yl)thio)ethyl)phenyl)picolinamide] | < 0.05 | < 0.05 | ≤ 1000 | 1.01 to 1.3 | 1.01 to 1.3 | 1.01 to 1.3
CCn1cnnc1C[C@@H](C)c1cccc(NC(=O)c2cc(C(=O)N3C[C@@H](O)C[C@H]3C)ccn2)c1 [Compound 251, N-(3-((R)-1-(4-ethyl-4H-1,2,4-triazol-3-yl)propan-2-yl)phenyl)-4-((2R,4S)-4-hydroxy-2-methylpyrrolidine-1-carbonyl)picolinamide] | 0.151 to 0.2 | 0.151 to 0.2 | ≤ 1000 | 1.01 to 1.3 | 1.01 to 1.3 | 1.01 to 1.3
C[C@H](Sc1nncn1C)c1cccc(NC(=O)c2cccc(S(C)(=O)=O)n2)c1 [Compound 80, (S)-N-(3-(1-((4-methyl-4H-1,2,4-triazol-3-yl)thio)ethyl)phenyl)-6-(methylsulfonyl)picolinamide] | < 0.05 | < 0.05 | ≤ 10000 | 1.01 to 1.3 | 1.01 to 1.3 | 1.01 to 1.3
C[C@H](Sc1nncn1C)c1ccnc(NC(=O)c2cc(Cl)cc(C(F)(F)F)n2)c1 [Compound 105, (S)-4-chloro-N-(4-(1-((4-methyl-4H-1,2,4-triazol-3-yl)thio)ethyl)pyridin-2-yl)-6-(trifluoromethyl)picolinamide] | < 0.05 | < 0.05 | ≤ 1000 | 1.01 to 1.3 | 1.01 to 1.3 | < 1
C[C@H](Sc1nncn1C)c1ccc(F)c(NC(=O)c2cccc(C(F)(F)F)n2)c1 [Compound 95a, (S)-N-(2-fluoro-5-(1-((4-methyl-4H-1,2,4-triazol-3-yl)thio)ethyl)phenyl)-6-(trifluoromethyl)picolinamide] | < 0.05 | 0.051 to 0.1 | ≤ 500 | < 1 | 1.01 to 1.3 | 1.01 to 1.3
C[C@H](Cc1nncn1C)c1cccc(NC(=O)c2cc(C(C)(C)O)c(Cl)cn2)c1 [Compound 186, (R)-5-chloro-4-(2-hydroxypropan-2-yl)-N-(3-(1-(4-methyl-4H-1,2,4-triazol-3-yl)propan-2-yl)phenyl)picolinamide] | 0.051 to 0.1 | 0.101 to 0.15 | ≤ 500 | 1.01 to 1.3 | 1.31 to 1.5 | > 1.76
